The inhibition is the drop in the measured response relative to a control, in per cent. Broadly, the IC50 is the concentration that inhibits the measured activity by half. Low readings indicate inhibition by little substance, high ones a need for much substance.

One test deals with PC3 cells. Description: PC3 growth inhibition (Cell-titer glo, 72 hours). The class given is cell-based. The note with it: Homo sapiens, PC-3, 72 h, read-out: Percent Viability, PC3 cells, compound concentration 1.667 μM, 72 hours. The method, boiled down:
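After 72 h compound treatment in AIM serum-free medium (37 °C, 5% CO2), viability of overnight-plated PC3 cells (8×10^4 cells/ml, RPMI1640-maintained) is read by CellTiter-Glo luminescence versus DMSO. Curves give GI50, LD50 or single-concentration % remaining viability.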

A further test has as its target hNAMPT protein (Homo sapiens (Human), UniProt P43490). Description: NAMPT enzyme assay (TR-FRET/HTRF with BodiPY ligand). The settings on record: for inhibition at 1 µM: NAMPT inhibition at compound concentration 1 μM, read-out: Percent Inhibition; for IC50: NAMPT inhibition, IC50 range class. Format: binding. Put shortly:
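Ligand displacement by TR-FRET: BodiPY emission (520 nm) over terbium (486 nm) after 320 nm excitation. Compound, BodiPY ligand, hNAMPT and anti-6His-Tb incubated 1 h at room temperature, dark, at pH 7.5. Percent inhibition computed versus DMSO; concentration-response curves fitted for IC50.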

Where only a bound is given, the exact number is not on record here.

Chain of hNAMPT protein (P43490 whole entry): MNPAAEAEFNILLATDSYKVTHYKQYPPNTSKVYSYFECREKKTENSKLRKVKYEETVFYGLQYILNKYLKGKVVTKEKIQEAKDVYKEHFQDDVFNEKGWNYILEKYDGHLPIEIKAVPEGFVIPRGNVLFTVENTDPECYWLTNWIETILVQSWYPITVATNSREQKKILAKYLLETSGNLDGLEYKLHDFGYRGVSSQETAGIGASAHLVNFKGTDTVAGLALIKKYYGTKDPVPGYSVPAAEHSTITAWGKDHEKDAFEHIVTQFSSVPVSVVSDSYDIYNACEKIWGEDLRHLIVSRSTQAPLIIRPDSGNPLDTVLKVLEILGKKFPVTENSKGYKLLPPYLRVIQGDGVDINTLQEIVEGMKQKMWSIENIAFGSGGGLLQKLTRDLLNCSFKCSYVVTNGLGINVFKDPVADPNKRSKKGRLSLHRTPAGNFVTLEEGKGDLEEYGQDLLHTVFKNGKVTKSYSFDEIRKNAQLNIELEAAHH

For `CCOc1c(F)c(-c2ccc(F)cc2)nc2cc(C(=O)NCCCc3cnn[nH]3)ccc12` [Compound I-73, 4-ethoxy-3-fluoro-2-(4-fluorophenyl)-N-[3-(1H-1,2,3-triazol-4-yl)propyl]quinoline-7-carboxamide], in the test on PC3 cells, the viability at 1.667 µM came to 1%. In addition, on hNAMPT protein, the inhibition at 1 µM was 100% and the half-maximal inhibitory concentration (IC50) was less than 0.01 µM.

As to `CCOc1cc(-c2ccnc(C)c2)nc2cc(C(=O)NCc3ccc4ncnn4c3)ccc12` [Compound I-74, 4-ethoxy-2-(2-methylpyridin-4-yl)-N-([1,2,4]triazolo[1,5-a]pyridin-6-ylmethyl)quinoline-7-carboxamide], the viability at 1.667 µM in the test with PC3 cells turned out to be 1%. Further, at hNAMPT protein, the inhibition at 1 µM came to 100% and the IC50 is less than 0.01 µM.

`CCOc1cc(-c2ccnc(C)c2)nc2cc(C(=O)NCCCc3[nH]nnc3C)ccc12` [Compound I-75, 4-ethoxy-2-(2-methylpyridin-4-yl)-N-[3-(4-methyl-1H-1,2,3-triazol-5-yl)propyl]quinoline-7-carboxamide]: the viability at 1.667 µM with PC3 cells came to 1%. Also, on hNAMPT protein, the inhibition at 1 µM was 94% and the half-inhibitory concentration (IC50) was in the range of 0.01 to 0.05 µM.

Consider `CCOc1cc(-c2ccc(=O)n(C)c2)nc2cc(C(=O)NCCc3[nH]nnc3C)ccc12` [Compound I-76, 4-ethoxy-2-(1-methyl-6-oxo-1,6-dihydropyridin-3-yl)-N-[2-(4-methyl-1H-1,2,3-triazol-5-yl)ethyl]quinoline-7-carboxamide], for which the viability at 1.667 µM in the test with PC3 cells was 11%. At hNAMPT protein, the inhibition at 1 µM was determined as 93% and the 50% inhibitory concentration (IC50) was in the range of 0.05 to 0.1 µM.

Consider `CCOc1cc(-c2ccc(C)nc2)nc2cc(C(=O)NCCc3[nH]nnc3C)ccc12` [Compound I-77, 4-ethoxy-2-(6-methylpyridin-3-yl)-N-[2-(4-methyl-1H-1,2,3-triazol-5-yl)ethyl]quinoline-7-carboxamide], for which the viability at 1.667 µM in the test with PC3 cells was found to be 1%. In addition, on hNAMPT protein, the inhibition at 1 µM is 97% and the half-inhibitory concentration (IC50) lay within 0.01 to 0.05 µM.

For the molecule `CCOc1c(F)c(-c2ccc(F)cc2)nc2cc(C(=O)NCCCc3nnc[nH]3)ccc12` [Compound I-78, 4-ethoxy-3-fluoro-2-(4-fluorophenyl)-N-[3-(4H-1,2,4-triazol-3-yl)propyl]quinoline-7-carboxamide], in the test on PC3 cells, the viability at 1.667 µM stood at 2%. Moreover, at hNAMPT protein, the inhibition at 1 µM was found to be 99% and the IC50 is less than 0.01 µM.

As to `CCOc1cc(-c2ccc(F)cc2)nc2cc(C(=O)NCc3cc4cnccc4s3)ccc12` [Compound I-79, 4-ethoxy-2-(4-fluorophenyl)-N-(thieno[3,2-c]pyridin-2-ylmethyl)quinoline-7-carboxamide], the viability at 1.667 µM in the test with PC3 cells is 2%. In addition, on hNAMPT protein, the inhibition at 1 µM turned out to be 99% and the IC50 was less than 0.01 µM.

With `CCOc1cc(-c2ccc(F)cc2)nc2cc(C(=O)NCc3cc4[nH]ncc4s3)ccc12` [Compound I-80, 4-ethoxy-2-(4-fluorophenyl)-N-(1H-thieno[3,2-c]pyrazol-5-ylmethyl)quinoline-7-carboxamide], in the test with PC3 cells, the viability at 1.667 µM was 2%. On hNAMPT protein, the inhibition at 1 µM was determined as 98% and the IC50 is less than 0.01 µM.

Turning to `COCCOc1cc(-c2ccc(F)cc2)nc2cc(C(=O)NCC(F)(F)Cc3nnc[nH]3)ccc12` [Compound I-81, N-[2,2-difluoro-3-(4H-1,2,4-triazol-3-yl)propyl]-2-(4-fluorophenyl)-4-(2-methoxyethoxy)quinoline-7-carboxamide], the viability at 1.667 µM in the test with PC3 cells came to 2%. Also, at hNAMPT protein, the inhibition at 1 µM amounted to 67% and the IC50 was greater than 0.1 µM.

For `COCCOc1cc(-c2ccc(F)cc2)nc2cc(C(=O)NCc3ccn4ncnc4c3)ccc12` [Compound I-82, 2-(4-fluorophenyl)-4-(2-methoxyethoxy)-N-([1,2,4]triazolo[1,5-a]pyridin-7-ylmethyl)quinoline-7-carboxamide], the viability at 1.667 µM in the test on PC3 cells is 2%. At hNAMPT protein, the inhibition at 1 µM stood at 100% and the IC50 was less than 0.01 µM.

Consider `CCOc1cc(-c2ccnc(OC)c2)nc2cc(C(=O)NCCc3[nH]nnc3C)ccc12` [Compound I-83, 4-ethoxy-2-(2-methoxypyridin-4-yl)-N-[2-(4-methyl-1H-1,2,3-triazol-5-yl)ethyl]quinoline-7-carboxamide], for which the viability at 1.667 µM in the test on PC3 cells came out at 2%. At hNAMPT protein, the inhibition at 1 µM is 96% and the IC50 is 0.01 to 0.05 µM.

Regarding `CCOc1cc(-c2ccc(F)cc2)nc2cc(C(=O)NCc3ccc4ncnn4c3)ccc12` [Compound I-84, 4-ethoxy-2-(4-fluorophenyl)-N-([1,2,4]triazolo[1,5-a]pyridin-6-ylmethyl)quinoline-7-carboxamide], the viability at 1.667 µM with PC3 cells was 1%. In addition, on hNAMPT protein, the inhibition at 1 µM was 99% and the 50% inhibitory concentration (IC50) is less than 0.01 µM.

As for `CCOc1cc(-c2ccc(F)cc2OC)nc2cc(C(=O)NCc3ccn4ncnc4c3)ccc12` [Compound I-85, 4-ethoxy-2-(4-fluoro-2-methoxyphenyl)-N-([1,2,4]triazolo[1,5-a]pyridin-7-ylmethyl)quinoline-7-carboxamide], the viability at 1.667 µM in the test on PC3 cells worked out at 2%. At hNAMPT protein, the inhibition at 1 µM was 100% and the IC50 was less than 0.01 µM.

`CCOc1cc(-c2ccnc(C)c2)nc2cc(C(=O)NCc3ccn4ncnc4c3)ccc12` [Compound I-86, 4-ethoxy-2-(2-methylpyridin-4-yl)-N-([1,2,4]triazolo[1,5-a]pyridin-7-ylmethyl)quinoline-7-carboxamide]: in the test with PC3 cells, the viability at 1.667 µM is 2%. Further, on hNAMPT protein, the inhibition at 1 µM worked out at 99% and the concentration for half-maximal inhibition (IC50) was less than 0.01 µM.

Consider `CCOc1cc(-c2ccc(C)nc2OC)nc2cc(C(=O)NCCc3[nH]nnc3C)ccc12` [Compound I-87, 4-ethoxy-2-(2-methoxy-6-methylpyridin-3-yl)-N-[2-(4-methyl-1H-1,2,3-triazol-5-yl)ethyl]quinoline-7-carboxamide], for which the viability at 1.667 µM in the test on PC3 cells was 2%. Moreover, at hNAMPT protein, the inhibition at 1 µM turned out to be 94% and the IC50 was 0.01 to 0.05 µM.

In the case of `CCOc1cc(-c2ccc(OC)nc2)nc2cc(C(=O)NCCc3[nH]nnc3C)ccc12` [Compound I-88, 4-ethoxy-2-(6-methoxypyridin-3-yl)-N-[2-(4-methyl-1H-1,2,3-triazol-5-yl)ethyl]quinoline-7-carboxamide], in the test with PC3 cells, the viability at 1.667 µM stood at 1%. Also, at hNAMPT protein, the inhibition at 1 µM stood at 97% and the IC50 fell in the range of 0.01 to 0.05 µM.

Turning to `CCOc1cc(-c2cnc(OC)c(F)c2)nc2cc(C(=O)NCCCc3nnc[nH]3)ccc12` [Compound I-89, 4-ethoxy-2-(5-fluoro-6-methoxypyridin-3-yl)-N-[3-(4H-1,2,4-triazol-3-yl)propyl]quinoline-7-carboxamide], in the test with PC3 cells, the viability at 1.667 µM is 2%. Also, at hNAMPT protein, the inhibition at 1 µM was determined as 96% and the IC50 lay in the range of 0.01 to 0.05 µM.

With `CCOc1cc(-c2ccnc(OC)c2F)nc2cc(C(=O)NCCCc3nnc[nH]3)ccc12` [Compound I-90, 4-ethoxy-2-(3-fluoro-2-methoxypyridin-4-yl)-N-[3-(4H-1,2,4-triazol-3-yl)propyl]quinoline-7-carboxamide], the viability at 1.667 µM in the test on PC3 cells turned out to be 1%. In addition, on hNAMPT protein, the inhibition at 1 µM was determined as 97% and the half-maximal inhibitory concentration (IC50) lay within 0.01 to 0.05 µM.

Take `CCOc1cc(-c2ccc(F)cc2)nc2cc(C(=O)NCC(F)(F)Cc3nnc[nH]3)ccc12` [Compound I-91, N-[2,2-difluoro-3-(4H-1,2,4-triazol-3-yl)propyl]-4-ethoxy-2-(4-fluorophenyl)quinoline-7-carboxamide]: the viability at 1.667 µM in the test on PC3 cells was determined as 2%. In addition, on hNAMPT protein, the inhibition at 1 µM turned out to be 80% and the half-maximal inhibitory concentration (IC50) was greater than 0.1 µM.

For the molecule `CCOc1cc(-c2ccc(C)nc2OC)nc2cc(C(=O)NCCc3c[nH]nc3C)ccc12` [Compound I-92, 4-ethoxy-2-(2-methoxy-6-methylpyridin-3-yl)-N-[2-(3-methyl-1H-pyrazol-4-yl)ethyl]quinoline-7-carboxamide], in the test on PC3 cells, the viability at 1.667 µM was determined as 2%. In addition, at hNAMPT protein, the inhibition at 1 µM is 95% and the half-maximal inhibitory concentration (IC50) was 0.01 to 0.05 µM.

For `CCOc1cc(-c2ccc(OC)nc2)nc2cc(C(=O)NCCCc3[nH]nnc3C)ccc12` [Compound I-93, 4-ethoxy-2-(6-methoxypyridin-3-yl)-N-[3-(4-methyl-1H-1,2,3-triazol-5-yl)propyl]quinoline-7-carboxamide], the viability at 1.667 µM in the test with PC3 cells was found to be 2%. Further, on hNAMPT protein, the inhibition at 1 µM amounted to 99% and the IC50 was 0.01 to 0.05 µM.

Consider `CCOc1cc(-c2ccc(C)nc2OC)nc2cc(C(=O)NCCCc3[nH]nnc3C)ccc12` [Compound I-94, 4-ethoxy-2-(2-methoxy-6-methylpyridin-3-yl)-N-[3-(4-methyl-1H-1,2,3-triazol-5-yl)propyl]quinoline-7-carboxamide], for which, in the test with PC3 cells, the viability at 1.667 µM was 1%. On hNAMPT protein, the inhibition at 1 µM came out at 97% and the half-maximal inhibitory concentration (IC50) was in the range of 0.01 to 0.05 µM.

In the case of `CCOc1cc(-c2ccn(C)c(=O)c2)nc2cc(C(=O)NCCCc3cnn[nH]3)ccc12` [Compound I-95, 4-ethoxy-2-(1-methyl-2-oxo-1,2-dihydropyridin-4-yl)-N-[3-(1H-1,2,3-triazol-5-yl)propyl]quinoline-7-carboxamide], the viability at 1.667 µM in the test on PC3 cells was 1%. Moreover, at hNAMPT protein, the inhibition at 1 µM is greater than 99% and the IC50 is less than 0.01 µM.

Regarding `CCOc1cc(-c2ccc(=O)n(C)c2)nc2cc(C(=O)NCCCc3cnn[nH]3)ccc12` [Compound I-96, 4-ethoxy-2-(1-methyl-6-oxo-1,6-dihydropyridin-3-yl)-N-[3-(1H-1,2,3-triazol-5-yl)propyl]quinoline-7-carboxamide], in the test on PC3 cells, the viability at 1.667 µM turned out to be 1%. Further, on hNAMPT protein, the inhibition at 1 µM is greater than 99% and the IC50 is less than 0.01 µM.

The record behind these values is US10323018B2 (Millennium Pharmaceuticals, Inc., priority 2015, dated 2019).
